Experimental data published in ChEMBL document CHEMBL3885881, “DrugMatrix”.

Organism: Rattus norvegicus
Test: DrugMatrix - Regimen: Daily Repeat
Assay type: toxicity, organism-based, Sprague-Dawley
Design: regimen Daily Repeat, gender Male, age 6-8 weeks
Conditions: in vivo, po, route oral GAVAGE, vehicle .5 % CMC; for ABSOLUTE BASOPHIL / ABSOLUTE EOSINOPHIL / ABSOLUTE LYMPHOCYTE / ABSOLUTE MONOCYTE / ABSOLUTE SEGMENTED NEUTROPHIL / BASOPHIL / EOSINOPHIL / ERYTHROCYTE COUNT / HEMATOCRIT / HEMOGLOBIN / LEUKOCYTE COUNT / LYMPHOCYTE / MEAN CORPUSCULAR HEMOGLOBIN / MEAN CORPUSCULAR HEMOGLOBIN CONCENTRATION / MEAN CORPUSCULAR VOLUME / MONOCYTE / NEUTROPHIL / NUCLEATED RED BLOOD CELLS / PLATELET COUNT: tissue Blood; for ALANINE AMINOTRANSFERASE / ALBUMIN / ALKALINE PHOSPHATASE / ASPARTATE AMINOTRANSFERASE / BLOOD UREA NITROGEN / CARBON DIOXIDE / CHLORIDE / CHOLESTEROL / CREATINE PHOSPHOKINASE / CREATININE / GLUCOSE / LACTATE DEHYDROGENASE / LIPASE / PHOSPHORUS / POTASSIUM / SODIUM / TOTAL BILIRUBIN / TOTAL PROTEIN / URIC ACID: tissue Plasma
[1] = 0 mg/kg, 72 h, dose level Control, time 3 day
[2] = 0 mg/kg, 120 h, dose level Control, time 5 day
[3] = 20 mg/kg, 72 h, dose level Low, time 3 day
[4] = 20 mg/kg, 120 h, dose level Low, time 5 day

Clc1ccc2c(c1)C(N1CCNCC1)=Nc1ccccc1O2 [AMOXAPINE]
ABSOLUTE BASOPHIL [1]: 0 CELLS/uL | ABSOLUTE EOSINOPHIL [1]: 32.5 CELLS/uL | ABSOLUTE LYMPHOCYTE [1]: 13494.17 CELLS/uL | ABSOLUTE MONOCYTE [1]: 474 CELLS/uL | ABSOLUTE SEGMENTED NEUTROPHIL [1]: 1932.67 CELLS/uL | BASOPHIL [1]: 0% | EOSINOPHIL [1]: 0.17% | ERYTHROCYTE COUNT [1]: 5.45 x10E6/uL | HEMATOCRIT [1]: 34.32% | HEMOGLOBIN [1]: 13.82 G/DL | LEUKOCYTE COUNT [1]: 15.93 x10E3/uL | LYMPHOCYTE [1]: 84.83% | MEAN CORPUSCULAR HEMOGLOBIN [1]: 25.38 pg | MEAN CORPUSCULAR HEMOGLOBIN CONCENTRATION [1]: 40.27 G/DL | MEAN CORPUSCULAR VOLUME [1]: 63.05 fL | MONOCYTE [1]: 3% | NEUTROPHIL [1]: 12% | NUCLEATED RED BLOOD CELLS [1]: 0.67 /100WBC | PLATELET COUNT [1]: 1188.5 x10E3/uL | ALANINE AMINOTRANSFERASE [1]: 54.83 u/L | ALBUMIN [1]: 4.22 G/DL | ALKALINE PHOSPHATASE [1]: 427.67 u/L | ASPARTATE AMINOTRANSFERASE [1]: 86.5 u/L | BLOOD UREA NITROGEN [1]: 15.33 mg/dL | CARBON DIOXIDE [1]: 24.83 mmol/L | CHLORIDE [1]: 102.33 MEQ/L | CHOLESTEROL [1]: 71.67 mg/dL | CREATINE PHOSPHOKINASE [1]: 442.5 u/L | CREATININE [1]: 0.19 mg/dL | GLUCOSE [1]: 160.67 mg/dL | LACTATE DEHYDROGENASE [1]: 236.5 u/L | LIPASE [1]: 9 u/L | PHOSPHORUS [1]: 11.97 mg/dL | POTASSIUM [1]: 6.2 MEQ/L | SODIUM [1]: 142.85 MEQ/L | TOTAL BILIRUBIN [1]: 0.2 mg/dL | TOTAL PROTEIN [1]: 5.8 G/DL | URIC ACID [1]: 1.3 mg/dL | ABSOLUTE BASOPHIL [2]: 0 CELLS/uL | ABSOLUTE EOSINOPHIL [2]: 114.5 CELLS/uL | ABSOLUTE LYMPHOCYTE [2]: 14614 CELLS/uL | ABSOLUTE MONOCYTE [2]: 173 CELLS/uL | ABSOLUTE SEGMENTED NEUTROPHIL [2]: 1048.5 CELLS/uL | BASOPHIL [2]: 0% | EOSINOPHIL [2]: 0.67% | ERYTHROCYTE COUNT [2]: 5.66 x10E6/uL | HEMATOCRIT [2]: 35.52% | HEMOGLOBIN [2]: 14.27 G/DL | LEUKOCYTE COUNT [2]: 15.95 x10E3/uL | LYMPHOCYTE [2]: 91.33% | MEAN CORPUSCULAR HEMOGLOBIN [2]: 25.23 pg | MEAN CORPUSCULAR HEMOGLOBIN CONCENTRATION [2]: 40.2 G/DL | MEAN CORPUSCULAR VOLUME [2]: 62.7 fL | MONOCYTE [2]: 1.17% | NEUTROPHIL [2]: 6.83% | NUCLEATED RED BLOOD CELLS [2]: 0.33 /100WBC | PLATELET COUNT [2]: 1229 x10E3/uL | ALANINE AMINOTRANSFERASE [2]: 58.67 u/L | ALBUMIN [2]: 4.32 G/DL | ALKALINE PHOSPHATASE [2]: 382.5 u/L | ASPARTATE AMINOTRANSFERASE [2]: 81.67 u/L | BLOOD UREA NITROGEN [2]: 17.67 mg/dL | CARBON DIOXIDE [2]: 27.17 mmol/L | CHLORIDE [2]: 102.33 MEQ/L | CHOLESTEROL [2]: 63.67 mg/dL | CREATINE PHOSPHOKINASE [2]: 227.67 u/L | CREATININE [2]: 0.23 mg/dL | GLUCOSE [2]: 155.33 mg/dL | LACTATE DEHYDROGENASE [2]: 146.5 u/L | LIPASE [2]: 10.67 u/L | PHOSPHORUS [2]: 11.93 mg/dL | POTASSIUM [2]: 6.85 MEQ/L | SODIUM [2]: 143.95 MEQ/L | TOTAL BILIRUBIN [2]: 0.18 mg/dL | TOTAL PROTEIN [2]: 6.02 G/DL | URIC ACID [2]: 1.63 mg/dL | ABSOLUTE BASOPHIL [3]: 0 CELLS/uL | ABSOLUTE EOSINOPHIL [3]: 0 CELLS/uL | ABSOLUTE LYMPHOCYTE [3]: 12123 CELLS/uL | ABSOLUTE MONOCYTE [3]: 372 CELLS/uL | ABSOLUTE SEGMENTED NEUTROPHIL [3]: 1505 CELLS/uL | BASOPHIL [3]: 0% | EOSINOPHIL [3]: 0% | ERYTHROCYTE COUNT [3]: 5.61 x10E6/uL | HEMATOCRIT [3]: 34.6% | HEMOGLOBIN [3]: 13.67 G/DL | LEUKOCYTE COUNT [3]: 14 x10E3/uL | LYMPHOCYTE [3]: 86.67% | MEAN CORPUSCULAR HEMOGLOBIN [3]: 24.47 pg | MEAN CORPUSCULAR HEMOGLOBIN CONCENTRATION [3]: 39.53 G/DL | MEAN CORPUSCULAR VOLUME [3]: 61.9 fL | MONOCYTE [3]: 2.67% | NEUTROPHIL [3]: 10.67% | NUCLEATED RED BLOOD CELLS [3]: 0.33 /100WBC | PLATELET COUNT [3]: 1267.33 x10E3/uL | ALANINE AMINOTRANSFERASE [3]: 52 u/L | ALBUMIN [3]: 4.13 G/DL | ALKALINE PHOSPHATASE [3]: 425.33 u/L | ASPARTATE AMINOTRANSFERASE [3]: 87 u/L | BLOOD UREA NITROGEN [3]: 15.67 mg/dL | CARBON DIOXIDE [3]: 26.67 mmol/L | CHLORIDE [3]: 101.33 MEQ/L | CHOLESTEROL [3]: 69 mg/dL | CREATINE PHOSPHOKINASE [3]: 308 u/L | CREATININE [3]: 0.17 mg/dL | GLUCOSE [3]: 148.33 mg/dL | LACTATE DEHYDROGENASE [3]: 190.67 u/L | LIPASE [3]: 9 u/L | PHOSPHORUS [3]: 12.47 mg/dL | POTASSIUM [3]: 6.99 MEQ/L | SODIUM [3]: 143.93 MEQ/L | TOTAL BILIRUBIN [3]: 0.17 mg/dL | TOTAL PROTEIN [3]: 5.8 G/DL | URIC ACID [3]: 1.77 mg/dL | ABSOLUTE BASOPHIL [4]: 0 CELLS/uL | ABSOLUTE EOSINOPHIL [4]: 0 CELLS/uL | ABSOLUTE LYMPHOCYTE [4]: 16690.33 CELLS/uL | ABSOLUTE MONOCYTE [4]: 278.67 CELLS/uL | ABSOLUTE SEGMENTED NEUTROPHIL [4]: 997.67 CELLS/uL | BASOPHIL [4]: 0% | EOSINOPHIL [4]: 0% | ERYTHROCYTE COUNT [4]: 5.66 x10E6/uL | HEMATOCRIT [4]: 34.53% | HEMOGLOBIN [4]: 14.03 G/DL | LEUKOCYTE COUNT [4]: 17.97 x10E3/uL | LYMPHOCYTE [4]: 93% | MEAN CORPUSCULAR HEMOGLOBIN [4]: 24.87 pg | MEAN CORPUSCULAR HEMOGLOBIN CONCENTRATION [4]: 40.63 G/DL | MEAN CORPUSCULAR VOLUME [4]: 61.17 fL | MONOCYTE [4]: 1.33% | NEUTROPHIL [4]: 5.67% | NUCLEATED RED BLOOD CELLS [4]: 0.67 /100WBC | PLATELET COUNT [4]: 1272 x10E3/uL | ALANINE AMINOTRANSFERASE [4]: 53.33 u/L | ALBUMIN [4]: 4.1 G/DL | ALKALINE PHOSPHATASE [4]: 315 u/L | ASPARTATE AMINOTRANSFERASE [4]: 72.33 u/L | BLOOD UREA NITROGEN [4]: 18.33 mg/dL | CARBON DIOXIDE [4]: 27.33 mmol/L | CHLORIDE [4]: 100.33 MEQ/L | CHOLESTEROL [4]: 84 mg/dL | CREATINE PHOSPHOKINASE [4]: 186.33 u/L | CREATININE [4]: 0.19 mg/dL | GLUCOSE [4]: 146 mg/dL | LACTATE DEHYDROGENASE [4]: 126.33 u/L | LIPASE [4]: 10 u/L | PHOSPHORUS [4]: 12.8 mg/dL | POTASSIUM [4]: 6.96 MEQ/L | SODIUM [4]: 145.2 MEQ/L | TOTAL BILIRUBIN [4]: 0.2 mg/dL | TOTAL PROTEIN [4]: 5.8 G/DL | URIC ACID [4]: 1.43 mg/dL
